Experimental data from US9809604B2, “DGAT1 inhibitor and preparation method and use thereof” (Qingdao Huanghai Pharmaceutical Co., Ltd., priority 2013, dated 2017).
Where two headings read alike, the source gives them in different places.

Target: T1, DGAT1 (Homo sapiens, UniProt O75907)
T1 sequence (O75907 1-488): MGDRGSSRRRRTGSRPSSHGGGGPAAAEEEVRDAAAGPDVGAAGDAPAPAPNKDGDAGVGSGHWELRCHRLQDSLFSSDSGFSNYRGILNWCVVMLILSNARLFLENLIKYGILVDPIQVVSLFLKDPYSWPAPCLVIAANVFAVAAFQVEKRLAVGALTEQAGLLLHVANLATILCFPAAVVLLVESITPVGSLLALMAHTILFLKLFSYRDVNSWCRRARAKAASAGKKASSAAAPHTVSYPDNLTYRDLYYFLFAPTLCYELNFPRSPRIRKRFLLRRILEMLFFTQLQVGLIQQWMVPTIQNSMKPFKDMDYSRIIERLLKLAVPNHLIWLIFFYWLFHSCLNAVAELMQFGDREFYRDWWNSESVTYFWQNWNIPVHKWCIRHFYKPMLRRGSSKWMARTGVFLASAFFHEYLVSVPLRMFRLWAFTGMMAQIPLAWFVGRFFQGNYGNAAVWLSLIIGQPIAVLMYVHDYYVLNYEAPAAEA
Experiment: Human DGAT1 IC50 enzyme assay (Flashplate, 14C-labeled acyl-CoA)
Format: biochemical
Design: made in house
Method: The ability of compounds to inhibit DGAT enzyme activity is determined by calculating IC50 values of test compounds. Ki values of DGAT1 are calculated as follows: Cheng-Prusoff equation: Ki=IC50/(1+[S]/Km)
(1) Human DGAT1 IC50 (nM) Experiment
Human DGAT1 activity was determined as follows:
Expressing human DGAT1 enzyme, used diacylglycerol and 14C-labeled acyl-CoA as the substrate, choose PE Company Flashplate testing board to build DGAT1 enzyme reaction system. 14C-labeled acyl-CoA binds to diacylglycerol by covalent bonding after enzymology reaction, and generates the product of 14C-labeled triglyceride. 14C-labeled acyl-CoA substrate is dissolved in reaction solution and 14C-labeled triglyceride product combine with phospholipids of Flashplate plate bottom layer, thus effectively separate labeled substrates and products. The radioactive of 14C-labeled triglyceride which is combined with phospholipid layer is counted, and the potencies of DGAT-1 inhibition for the compounds are determined by calculating the IC50 values.

[1] = average of first and second, read-out: hDGAT1 IC50(nM) Average
[2] = first determination, read-out: hDGAT1 IC50(nM) First
[3] = second determination, read-out: hDGAT1 IC50(nM) Second

For Cc1nn(CC(=O)O)cc1-c1ccc(N2CCOc3ncnc(N)c3C2=O)cc1Cl [Compound 36, 2-(4-(4-(4-amino-5-oxo-7,8-dihydropyrimido[5,4-f][1,4]oxazepin-6(5H)-yl)-2-chlorophenyl)-3-methyl-1H-pyrazol-1-yl)acetic acid], the IC50 [1] was 29.3 nM, the IC50 [2] was 37.7 nM and the IC50 [3] was 21 nM.
With Nc1ncnc2c1C(=O)N(c1ccc(-c3cnn(CCC(=O)O)c3)c(F)c1)CCO2 [Compound 37, 3-(4-(4-(4-amino-5-oxo-7,8-dihydropyrimido[5,4-f][1,4]oxazepin-6(5H)-yl)-2-fluorophenyl)-1H-pyrazol-1-yl) propanoic acid] the IC50 [1] was 79.6 nM, the IC50 [2] was 84.6 nM and the IC50 [3] was 74.5 nM.
Compound Cc1nn(CCC(=O)O)c(C)c1-c1ccc(N2CCOc3ncnc(N)c3C2=O)cc1Cl [Compound 38, 3-(4-(4-(4-amino-5-oxo-7,8-dihydropyrimido[5,4-f][1,4]oxazepin-6(5H)-yl)-2-chlorophenyl)-3,5-dimethyl-1H-pyrazol-1-yl)propanoic acid] has an IC50 [1] of 50.7 nM, an IC50 [2] of 46.5 nM and an IC50 [3] of 55 nM.
With Nc1ncnc2c1C(=O)N(c1ccc(-c3cn(CC(=O)O)nc3C(F)(F)F)cc1)CCO2 [Compound 39, 2-(4-(4-(4-amino-5-oxo-7,8-dihydropyrimido[5,4-f][1,4]oxazepin-6(5H)-yl)phenyl)-3-(trifluoromethyl)-1H-pyrazol-1-yl)acetic acid] the IC50 [1] was 98.4 nM, the IC50 [2] was 72.9 nM and the IC50 [3] was 124 nM.
CC(C)(O)Cn1cc(-c2ccc(N3CCOc4ncnc(N)c4C3=O)cc2Cl)cn1 [Compound 42, 4-amino-6-(3-chloro-4-(1-(2-hydroxy-2-methylpropyl)-1H-pyrazol-4-yl)phenyl)-7,8-dihydropyrimido[5,4-f][1,4]oxazepin-5(6H)-one] gave an IC50 [1] of 59.6 nM, an IC50 [2] of 75 nM and an IC50 [3] of 44.2 nM.
Work on Cc1cc(N2CCOc3ncnc(N)c3C2=O)cc(C)c1-c1cn(CC(F)F)nc1C [Compound 43, 4-amino-6-(4-(1-(2,2-difluoroethyl)-3-methyl-1H-pyrazol-4-yl)-3,5-dimethylphenyl)-7,8-dihydropyrimido[5,4-f][1,4]oxazepin-5(6H)-one] yielded an IC50 [1] of 17.6 nM, an IC50 [2] of 18.5 nM and an IC50 [3] of 16.7 nM.
CC(C)(CO)Cn1cc(-c2ccc(N3CCOc4ncnc(N)c4C3=O)cc2Cl)cn1 [Compound 44, 4-amino-6-(3-chloro-4-(1-(3-hydroxy-2,2-dimethylpropyl)-1H-pyrazol-4-yl)phenyl)-7,8-dihydropyrimido[5,4-f][1,4]oxazepin-5(6H)-one] showed an IC50 [1] of 45 nM, an IC50 [2] of 59.5 nM and an IC50 [3] of 30.5 nM.
Compound CC(C)Cn1cc(-c2ccc(N3C[C@@H](C)Oc4ncnc(N)c4C3=O)cc2Cl)cn1 [Compound 45, (R)-4-amino-6-(3-chloro-4-(1-isobutyl-1H-pyrazol-4-yl)phenyl)-8-methyl-7,8-dihydropyrimido[5,4-f][1,4]oxazepin-5(6H)-one] has an IC50 [1] of 16 nM, an IC50 [2] of 17.4 nM and an IC50 [3] of 14.6 nM.
For NC(=O)Cn1cc(-c2ccc(N3CCOc4ncnc(N)c4C3=O)cc2Cl)cn1 [Compound 46, 2-(4-(4-(4-amino-5-oxo-7,8-dihydropyrimido[5,4-f][1,4]oxazepin-6(5H)-yl)-2-chlorophenyl)-1H-pyrazol-1-yl)acetamide], the IC50 [1] was 95.6 nM, the IC50 [2] was 89 nM and the IC50 [3] was 102 nM.
Cc1cc(N2CCOc3ncnc(N)c3C2=O)cc(C)c1-c1cn(CC2(C)COC2)nc1C [Compound 47, 4-amino-6-(3,5-dimethyl-4-(3-methyl-1-((3-methyloxetan-3-yl)methyl)-1H-pyrazol-4-yl)phenyl)-7,8-dihydropyrimido[5,4-f][1,4]oxazepin-5(6H)-one] showed an IC50 [1] of 87 nM, an IC50 [2] of 65.4 nM and an IC50 [3] of 109 nM.
Nc1ncnc2c1C(=O)N(c1ccc(-c3cnn(CC(=O)O)c3)c(Cl)c1)CCO2 [Compound 56, 2-(4-(4-(4-amino-5-oxo-7,8-dihydropyrimido [5,4-f][1,4]oxaxepin-6(5H)-yl)-2-chlorophenyl)-1H-pyrazol-1-yl)acetic acid] showed an IC50 [1] of 51.8 nM, an IC50 [2] of 65.8 nM and an IC50 [3] of 37.7 nM.
Work on Cc1cc(N2CCOc3ncnc(N)c3C2=O)ccc1-c1cnn(CC(=O)O)c1 [Compound 57, 2-(4-(4-(4-amino-5-oxo-7,8-dihydropyrimido [5,4-f][1,4]oxazepin-6(5H)-yl)-2-methylphenyl)-1H-pyrazol-1-yl)acetic acid] yielded an IC50 [1] of 91.9 nM, an IC50 [2] of 81.3 nM and an IC50 [3] of 102 nM.
With Cc1cc(N2CCOc3ncnc(N)c3C2=O)ccc1-c1cnn(C(C(=O)O)C(C)C)c1 (stereo not drawn) [Compound 59, 2-(4-(4-(4-amino-5-oxo-7,8-dihydropyrimido [5,4-f][1,4]oxazepin-6(5H)-yl)-2-methylphenyl)-1H-pyrazol-1-yl)-3-methylbutanoic acid] the IC50 [1] was 80.3 nM, the IC50 [2] was 54.9 nM and the IC50 [3] was 106 nM.
For CCC(C(=O)O)n1cc(-c2ccc(N3CCOc4ncnc(N)c4C3=O)cc2Cl)cn1 (stereo not drawn) [Compound 61, 2-(4-(4-(4-amino-5-oxo-7,8-dihydropyrimido [5,4-f][1,4]oxazepin-6(5H)-yl)-2-chlorophenyl)-1H-pyrazol-1-yl)butanoic acid], the IC50 [1] was 37.8 nM, the IC50 [2] was 28.2 nM and the IC50 [3] was 47.4 nM.
Nc1ncnc2c1C(=O)N(c1ccc(-c3cn(CCC(=O)O)nc3C(F)(F)F)cc1)CCO2 [Compound 62] gave an IC50 [1] of 68.2 nM, an IC50 [2] of 57.9 nM and an IC50 [3] of 78.6 nM.
CCC(C(=O)O)n1cc(-c2ccc(N3CCOc4ncnc(N)c4C3=O)cc2C)cn1 (stereo not drawn) [Compound 64, 2-(4-(4-(4-amino-5-oxo-7,8-dihydropyrimido [5,4-f][1,4]oxazepin-6(5H)-yl)-2-methylphenyl)-1H-pyrazol-1-yl)butanoic acid] was tested, and the IC50 [1] was 57.6 nM, the IC50 [2] was 38.7 nM and the IC50 [3] was 76.5 nM.
CC(C)C(C(=O)O)n1cc(-c2ccc(N3CCOc4ncnc(N)c4C3=O)cc2Cl)cn1 (stereo not drawn) [Compound 65, 2-(4-(4-(4-amino-5-oxo-7,8-dihydropyrimido [5,4-f][1,4]oxazepin-6(5H)-yl)-2-chlorophenyl)-1H-pyrazol-1-yl)-3-methylbutanoic acid] showed an IC50 [1] of 41.5 nM, an IC50 [2] of 39 nM and an IC50 [3] of 44.1 nM.
Cc1cc(N2CCOc3ncnc(N)c3C2=O)cc(C)c1-c1cnn(C(C)(C)C(=O)O)c1 [Compound 66, 2-(4-(4-(4-amino-5-oxo-7,8-dihydropyrimido [5,4-f][1,4]oxazepin-6(5H)-yl)-2,6-dimethylphenyl)-1H-pyrazol-1-yl)-2-methylpropanoic acid] was tested, and the IC50 [1] was 42.6 nM, the IC50 [2] was 47.1 nM and the IC50 [3] was 38.2 nM.
Cc1cc(N2CCOc3ncnc(N)c3C2=O)cc(C)c1-c1cnn(CC(=O)O)c1 [Compound 67, 2-(4-(4-(4-amino-5-oxo-7,8-dihydropyrimido [5,4-f][1,4]oxazepin-6(5H)-yl)-2,6-dimethylphenyl)-1H-pyrazol-1-yl)acetic acid] was tested, and the IC50 [1] was 53.2 nM, the IC50 [2] was 56.1 nM and the IC50 [3] was 50.3 nM.
For Cc1cc(N2CCOc3ncnc(N)c3C2=O)cc(C)c1-c1cnn(CCC(=O)O)c1 [Compound 70, 3-(4-(4-(4-amino-5-oxo-7,8-dihydropyrimido [5,4-f][1,4]oxazepin-6(5H)-yl)-2,6-dimethylphenyl)-1H-pyrazol-1-yl)propanoic acid], the IC50 [1] was 20.4 nM, the IC50 [2] was 27.6 nM and the IC50 [3] was 13.2 nM.
Work on CC(C)(Cn1cc(-c2ccc(N3CCOc4ncnc(N)c4C3=O)cc2Cl)cn1)C(=O)O [Compound 71, 3-(4-(4-(4-amino-5-oxo-7,8-dihydropyrimido [5,4-f][1,4]oxazepin-6(5H)-yl)-2-chlorophenyl)-1H-pyrazol-1-yl)-2,2-dimethylpropanoic acid] yielded an IC50 [1] of 30.6 nM, an IC50 [2] of 35.9 nM and an IC50 [3] of 25.3 nM.
Work on Cc1cc(N2CCOc3ncnc(N)c3C2=O)cc(C)c1-c1cn(CC(=O)O)nc1C [Compound 73, 2-(4-(4-(4-amino-5-oxo-7,8-dihydropyrimido [5,4-f][1,4]oxazepin-6(5H)-yl)-2,6-dimethylphenyl)-3-methyl-1H-pyrazol-1-yl)acetic acid] yielded an IC50 [1] of 34.4 nM, an IC50 [2] of 24.5 nM and an IC50 [3] of 44.3 nM.
In the case of Cc1nn(CCC(=O)O)c(C)c1-c1ccc(N2CCOc3ncnc(N)c3C2=O)cc1 [Compound 76], the IC50 [1] is reported as 23.5 nM, the IC50 [2] is reported as 14.6 nM and the IC50 [3] is reported as 32.4 nM.
For Cc1nn(CCC(=O)O)cc1-c1ccc(N2CCOc3ncnc(N)c3C2=O)cc1Cl [Compound 78, 3-(4-(4-(4-amino-5-oxo-7,8-dihydropyrimido [5,4-f][1,4]oxazepin-6(5H)-yl)-2-chlorophenyl)-3-methyl-1H-pyrazol-1-yl)propanoic acid], the IC50 [1] was 54.8 nM, the IC50 [2] was 69.2 nM and the IC50 [3] was 40.3 nM.
CCn1cc(-c2ccc(N3CCOc4ncnc(N)c4C3=O)cc2Cl)cn1 [Compound 79, 4-amino-6-(3-chloro-4-(1-ethyl-1H-pyrazol-4-yl)phenyl)-7,8-dihydropyrimido [5,4-f][1,4]oxazepin-5(6H)-one] was tested, and the IC50 [1] was 52.1 nM, the IC50 [2] was 46.4 nM and the IC50 [3] was 57.8 nM.
